Measured values from patent US20260201476A1, “METHODS FOR IDENTIFYING RESISTANCE OR RESPONSE TO VENETOCLAX/HYPOMETHYLATING AGENT/ANTI-CD70 AGENT TREATMENT FOR ACUTE MYELOID LEUKEMIA” (The Regents of the University of Colorado, A Body Corporate, priority 2022, published 2026).
Where two headings read alike, the source gives them in different places.

Tests used:
[1] = tested on: newly diagnosed AML; settings: 1118 newly diagnosed AML patients, cited from earlier work
[2] = tested on: AML; settings: older previously untreated AML patients; venetoclax in combination with backbone chemotherapy treatments; cited from earlier work
[3] = tested on: AML; experiment: Survival probability of AML subjects by biomarker after venetoclax/azacitidine with or without cusatuzumab (Example 3); type: in vivo, human
Source text: The following is a non-limiting example of analysis showing the response of AML subjects to treatment with a combination of venetoclax and azacitidine, or a combination of venetoclax, azacitidine and cusatuzumab, based on various different biomarkers.
FIGS. 12-15 are a series of graphs showing the survival probability of AML subjects after receiving a combination of venetoclax, azacitidine and cusatuzumab. The left panel of each of FIGS. 12-15 are all subjects for which data was available, and the right panel is a subset of the data presented in the left panel minus the subjects who received at least one stem cell transplant.
FIGS. 16-18 are a series of graphs showing the survival probability of AML subjects after receiving either a combination of venetoclax and azacitidine (top panels) or a combination of venetoclax, azacitidine and cusatuzumab (bottom panels).

## Nc1ccn([C@@H]2O[C@H](CO)[C@@H](O)[C@@H]2O)c(=O)n1 [cytarabine, 4-amino-1-[(2R,3S,4S,5R)-3,4-dihydroxy-5-(hydroxymethyl)oxolan-2-yl] pyrimidin-2-one]
[1]; ELN 2022 adverse risk group
  5-year OS: 15%
[1]; ELN 2022 favorable risk group
  5-year OS: 55%
[1]; ELN 2022 intermediate risk group
  5-year OS: 34%

## CC1(C)CCC(CN2CCN(c3ccc(C(=O)NS(=O)(=O)c4ccc(NCC5CCOCC5)c([N+](=O)[O-])c4)c(Oc4cnc5[nH]ccc5c4)c3)CC2)=C(c2ccc(Cl)cc2)C1 [venetoclax, 4-(4-{[2-(4-Chlorophenyl)-4,4-dimethyl-1-cyclohexen-1-yl]methyl}-1-piperazinyl)-N-({3-nitro-4-[(tetrahydro-2H-pyran-4-ylmethyl)amino]phenyl}sulfonyl)-2-(1H-pyrrolo[2,3-b]pyridin-5-yloxy)benzamide]
[2]
  responses: 60-70%

## cusatuzumab: an anti-CD70 monoclonal antibody currently being tested in clinical trials for the treatment of AML
[3]; CD7+ AML (FIG. 16)
  effect of adding cusatuzumab to venetoclax and azacitidine on survival: overcome the poor prognostic significant of CD7+ AML
[3]; FIG. 18 (PTPN11), text prints mutated KRAS
  effect of adding cusatuzumab to venetoclax and azacitidine on survival: overcome the poor prognostic significant of mutated KRAS
[3]; mutated KRAS (FIG. 17)
  effect of adding cusatuzumab to venetoclax and azacitidine on survival: overcome the poor prognostic significant of mutated KRAS
